The values below come from patent US20060172357A1, “Detecting human antibodies in non-human serum” (Genentech, priority 2004, published 2006).

Like-named read-outs stand apart in the source and are kept apart here. The star is where a group is joined. Biotin = O=C1N[C@H]2[C@H](CS[C@H]2CCCCC(=O)*)N1

The target in experiment [1] is rhuMAb2H7. To be noted: apparent affinity; Method 2; peptide immobilized on streptavidin chip, 2H7-IgG injected, bivalent analyte model. The method, then: In the second method, affinities were measured with a Biacore 3000 on a strepavidin chip using either immobilized CD20-35 mer, bis(biotin)) at 685 RU, CD20(51-mer, mono(biotin)) at 1637 RU, or CD20(51-mer, bis(biotin)) at 1037 RU.
PBS/Tween/azide was used as the running buffer, at 20 μL/minute, with 20 mM HCl for regeneration. 2H7-IgG was injected, and the resulting data was fit to a bivalent analyte model.

The target of experiment [2] is rhuMAb2H7. To be noted: apparent equilibrium dissociation constant; Method 1; peptide immobilized on streptavidin chip, 2H7-IgG injected. The protocol:
In the first method, affinities were measured with a Biacore 3000 on a strepavidin chip using either immobilized mono-biotinylated CD20-35 mer at 95 RU, or mono-biotinylated CD20-51 mer at 94 RU, where RU is a relative surface plasmon resonance unit based upon an arbitrary scale. The running buffer was HBS-EP flowing at 50 μL/min with 25 μl of 10 mM Glycine-HCl, and a pH of 2.5 for the regeneration. 2H7-IgG was injected, and the resulting data was fit to a 1:1 binding model with Biaevaluation 3.0 software (Biacore AB, Uppsala, Sweden) to get the apparent equilibrium dissociation constants.

Experiment [3] concerns the target T1, CD20 full Length (Homo sapiens, UniProt P11836).
T1 construct: MKHQHQQ leader (N); octa-His (C); made in house; host or cells: E. coli
T1 sequence (P11836 1-297): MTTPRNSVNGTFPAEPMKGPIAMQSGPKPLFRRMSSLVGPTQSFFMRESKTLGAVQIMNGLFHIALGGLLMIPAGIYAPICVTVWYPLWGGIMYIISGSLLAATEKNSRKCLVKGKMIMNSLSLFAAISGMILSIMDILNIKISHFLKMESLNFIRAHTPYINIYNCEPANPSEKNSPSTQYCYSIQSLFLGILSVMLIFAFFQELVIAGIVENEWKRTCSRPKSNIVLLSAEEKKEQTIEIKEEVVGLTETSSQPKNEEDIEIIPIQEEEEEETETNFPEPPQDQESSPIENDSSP
The experiment is described as follows: ELISA using full-length CD20 molecule as the capture reagent. Type of experiment: binding. Conditions: N 8. The protocol: […] The plate was then washed for 3 times with the washing buffer (PBS with 0.05% polysorbate-20). Blocking buffer (200 μl) was added and the plate was sealed and incubated at room temperature for 2 hours with a gentle agitation. […] After incubating at room temperature for another hour with a gentle agitation, the plate was washed again with the washing buffer for six times and blotted dry. A volume of 100 μl of the detection agent diluted with the detection agent diluent was added and the plate was sealed and incubated at room temperature for one hour with a gentle agitation. The plate was then washed for another six times and blotted dry before the addition of 100 μl of an equal volume of TMB and H2O2. After incubating at room temperature for 15 minutes without agitation, the reaction was stopped by adding another 100 μl of 1 M H3PO4. The absorbance at 450 nm subtracted of that at 650 nm was read from the Spectra Max250 plate reader (Molecular Devices Corporation, Sunnyvale, Calif.), and the data were processed using SoftmaxPro (Molecular Devices Corporation, Sunnyvale, Calif.).

For “Biotin GKISHFLKMESLNFIRAHTPYINIYNCEPANPSEKNSPSTQYCYSIQSGGK (Biotin)-amide [Bis-CD20-51mer]”, the Kd in experiment [1] came out at 110 nM.

Consider “Biotin-FIRAHTPYINIYNCEPANPSEKNSPSTQYCYSGGK(Biotin)-NH2 (cysteine pairing not given here) [Bis-CD20-35mer]”, for which, in experiment [1], the Kd is 500 nM.

On to “Biotin-FIRAHTPYINIYNCEPANPSEKNSPSTQYCYSGGK-NH2 (cysteine pairing not given here) [Mono-CD20-35mer]”, for which the Kd in experiment [2] was determined as 41700 nM.

Take “Biotin-GKISHFLKMESLNFIRAHTPYINIYNCEPANPSEKNSPSTQYCYSIQSGGK-NH2 (cysteine pairing not given here) [Mono-CD20-51 mer]”: the Kd in experiment [2] turned out to be 47 nM; in experiment [1] it was 130 nM.

Consider “Rituxan: anti-CD20 antibody, generated as disclosed in U.S. Pat. No 5,736,137”, for which the “signal of 247 ng/ml of antibody” value was 0.065 O.D.450 nm in experiment [3] (capture reagent 1 μg/mL in PBS, detection Goat anti-hu F(ab′)2 HRP); 0.012 O.D.450 nm in experiment [3] (capture reagent 1 μg/mL in PBS, detection Sheep anti-hu IgG HRP (Monkey Adsorbed)); 0.166 O.D.450 nm in experiment [3] (capture reagent 5 μg/mL in PBS, detection Goat anti-hu F(ab′)2 HRP); 0.023 O.D.450 nm in experiment [3] (capture reagent 5 μg/mL in PBS, detection Sheep anti-hu IgG HRP (Monkey Adsorbed)).
